How the values were obtained:
[1] = tested on: HRECs (Human Retinal Endothelial Cells); assay: Screening based on change in cytoskeleton: VEGF-induced actin stress fibers, rhodamine phalloidin staining; assay type: cell-based; settings: for ability to inhibit the formation of actin stress fibers induced by VEGF: confluent HRECs pretreated with 10 μg/mL compound for 1 hour before 20 ng/ml VEGF, FIGS. 4 and 5; for abilities to inhibit the formation of actin stress fibers induced by VEGF and maintain the cortical actin ring structure, ranking: confluent HRECs, pretreated 1 hour, 20 ng/ml VEGF
Experimental: Confluent HRECs were pretreated with the compounds (10 μg/mL) for 60 minutes before treating with 20 ng/mL VEGF. The cells were then stained with rhodamine phalloidin.
(§1) Human retinal endothelial cells (HRECs) purchased from Cell Systems (USA) were seeded on a 100 mm culture dish containing EGM medium (Life Technologies, USA) containing 20% (w/v) fetal bovine serum (FBS, HyClone, Canada), 100 units/mL penicillin (Invitrogen, USA), 100 μg/mL streptomycin (Invitrogen, USA), 3 ng/mL fibroblast growth factor (Upstate Biotechnology, USA) and 5 units/mL heparin and cultured in a 5% CO2 incubator at 37° C.
It is known that the change in the actin structure of the cytoskeleton is closely related with the permeability of vascular endothelial cells. Increased permeability of vascular endothelial cells leads to an increase in actin stress fibers and a decrease in cortical actin ring structures. Based on this, the ability to inhibit vascular endothelial permeability of the synthesized derivatives of Rk1 was screened. Confluent HRECs were pretreated with […] the synthesized compounds for 1 hour before the treatment with 20 ng/ml VEGF (Upstate Biotechnology). Then, the cells were fixed with 4% paraformaldehyde for 20 minutes at room temperature, and washed 3 times with PBS (pH 7.4). Then, the cells were permeabilized with 0.1% Triton X-100/PBS, and reacted with 0.1 mg/ml rhodamine phalloidin (Molecular Probes) for 1 hour. Then, the cells were observed under a fluorescence microscope (Olympus).

[2] = tested on: HRECs (Human Retinal Endothelial Cells); assay: Screening of synthesized derivatives for ability to inhibit serum depletion-induced vascular endothelial cell apoptosis (MTT assay, cell morphology); assay type: cell-based; settings: serum-free, 10 μg/ml; for ability to inhibit apoptosis, ranking among synthetic derivatives and control groups: comparison with control groups; for ability to inhibit apoptosis compared with Sac-1004: relative to control Sac-1004
Experimental: FIGS. 1a-1c and FIGS. 2a-2c show the result of screening Rk1 analogs that protect HRECs (Human Retinal Endothelial Cells) from serum depletion-induced apoptosis. HRECs (3×10^5 cells/well) were seeded on a 24-well plate in EGM9 medium containing 20% fetal bovine serum. The next day, the cells were transferred to a medium containing 10 μg/mL of the synthesized compound. Cell viability was determined by MTT assay 48 hours later. […] Con is indicative of cells treated with DMSO.
as §1
Based on the previous researches conducted by the present inventors, synthesized derivatives of Rk1 having a steroid backbone and having an ability to inhibit vascular endothelial cell apoptosis were screened. Vascular endothelial cells HRECs (3×10^5 cells/well) were plated on a 24-well plate in which 1 ml of EGM medium containing 20% fetal bovine serum was present. The next day, the cells were transferred to serum-free EGM media containing 10 μg/ml of the compounds synthesized in Synthetic Examples 1 and 2. After 24 hours, cell viability was determined by MTT assay (Mosmann T, Journal of Immunological Methods 65(1-2):5563(1983); Cory A H, et al., Cancer Communications 3(7):20712(1991)).

[3] = tested on: HRECs (Human Retinal Endothelial Cells); assay: Ability to inhibit apoptosis of Sac-1009, Sac-1104 and Sac-1019 according to concentration (serum removal, MTT assay); assay type: cell-based; settings: for inhibition of apoptosis of HRECs, concentration dependence: serum-free EGM, 0, 0.1, 1, 5 and 10 μg/ml; for inhibition of apoptosis of HRECs, concentration dependence / concentration of the most effective ability to inhibit apoptosis: MTT after 48 hours, FIG. 3; for concentration of the most effective ability to inhibit apoptosis: serum-free EGM, tested 0-10 μg/ml; for cell viability of HRECs in a serum depletion environment: summary of test examples 1 and 2
Experimental: HRECs (3×10^5 cells/well) were seeded on a 24-well plate in EGM medium containing 20% fetal bovine serum. The next day, the cells were transferred to a serum depletion EGM medium containing Sac-1009, Sac-1104 or Sac-1019. Sac-1009, Sac-1104 and Sac-1019 were added into the medium at a concentration of 0, 0.1, 1, 5 or 10 μg/mL, respectively. Cell viability was determined by MTT assay 48 hours later.
as §1
After apoptosis was induced by removing serum from the medium of vascular endothelial cells, Sac-1009, Sac-1104, and Sac-1019 were applied to cells to measure the ability to inhibit apoptosis. Vascular endothelial cells HRECs (3×10^5 cells/well) were plated on a 24-well plate in which 1 ml of EGM medium containing 20% fetal bovine serum was present. The next day, the cells were transferred to serum-free EGM media containing Sac-1009, Sac-1104, and Sac-1019. Sac-1009, Sac-1104, and Sac-1019 were added at concentrations of 0, 0.1, 1, 5, and 10 μg/ml. After 48 hours, cell viability was determined by MTT assay.

[4] = tested on: HRECs (Human Retinal Endothelial Cells); settings: cited from earlier work; for ability to inhibit apoptosis (derivatives of previous researches, control groups): obtained in the previous researches by the inventors (Korean Patent Application Publication No. 2011-0047170); for ability to inhibit apoptosis, comparison in the previous researches: relative to Rk1 or to other earlier derivatives

Row | Compound | ability to inhibit the formation of actin stress fibers induced by VEGF [1] | abilities to inhibit the formation of actin stress fibers induced by VEGF and maintain the cortical actin ring structure, ranking [1] | ability to inhibit apoptosis, ranking among synthetic derivatives and control groups [2] | ability to inhibit apoptosis compared with Sac-1004 [2] | inhibition of apoptosis of HRECs, concentration dependence [3] | concentration of the most effective ability to inhibit apoptosis [3] [µg/mL] | cell viability of HRECs in a serum depletion environment [3] | ability to inhibit apoptosis (derivatives of previous researches, control groups) [4] | ability to inhibit apoptosis, comparison in the previous researches [4]
1 | CC(=O)OC[C@H]1OC(O[C@H]2CC[C@@]3(C)C(=CCC4C3CC[C@@]3(C)C4CC[C@@H]3/C(C)=N/OC3CCCC3)C2)C=C[C@@H]1OC(C)=O (stereo partly drawn) [Sac-1019] | inhibit the formation of actin stress fibers induced by VEGF | the most excellent | the most excellent | equivalent to that of Sac-1004 | concentration-dependent manner | 10 | increase cell viability |  | 
2 | COC(=O)CCC/C=C(\C)[C@H]1CCC2C3CC=C4C[C@@H](OC5C=C[C@H](OC(C)=O)[C@@H](COC(C)=O)O5)CC[C@]4(C)C3CC[C@@]21C (stereo partly drawn) [Sac-1004] |  |  |  |  |  |  |  | having an ability to inhibit apoptosis | the most excellent
3 | CC(=O)OC[C@H]1OC(O[C@H]2CC[C@@]3(C)C(=CCC4C3CC[C@@]3(C)C4CC[C@@H]3/C(C)=N/OC3C=CCCC3)C2)C=C[C@@H]1OC(C)=O (stereo partly drawn) [Sac-1104] | inhibit the formation of actin stress fibers induced by VEGF | the most excellent | the most excellent | equivalent to that of Sac-1004 | concentration-dependent manner | 10 | increase cell viability |  | 
4 | CC(=O)OCC1OC(OC2CCC3(C)C(=CCC4C3CCC3(C)C(C(C)CCCC(C)C)CCC43)C2)C=CC1OC(C)=O (stereo not drawn) [Sac-0601] |  |  |  |  |  |  |  | having an ability to inhibit apoptosis | equivalent to that of Rk1

From US9353144B2, “Vascular leakage inhibitor” (INDUSTRY-ACADEMIC COOPERATION FOUNDATION, YONSEI UNIVERSITY, priority 2011, dated 2016)
